From US20240285730A1, “COMPOSITIONS AND METHODS FOR THE TREATMENT OF GRAFT VERSUS HOST DISEASE” (VectivBio AG, priority 2021, published 2024) come the findings set out here.

Molecules are shown by their SMILES. Entries after “also recorded” stand apart in the source; their conditions may differ. Square brackets hold non-standard residues; d marks the D form. Peptide text beside a SMILES is read from it. ξ: configuration not given here. Ile(3ξ) = CCC(C)[C@H](N)C(=O)O; Thr(3ξ) = CC(O)[C@H](N)C(=O)O; Nle = CCCC[C@H](N)C(=O)O

The subject of assay [1] is acute gastrointestinal GvHD mouse model. Nature of the assay: Acute GvHD mouse model, first experiment (8.5 Gy irradiation + allogeneic bone marrow/spleen cell transplant). The assay is classed as in vivo, BALB/cJ male mice. How it is done:
Mouse #3 (Group A), #13 (Group B) and #20 (Group B) were administered the cells by subcutaneous injection rather than intravenously. Mouse #5 (Group B) and #10 (Group B) received half the cells by intravenous injection and half by subcutaneous injection.
Various histological parameters of the jejunum were also measured, including single cell necrosis levels, necrosis of all crypts, shortening of villi, cryptal hyperplasia (regenerative), cell infiltrate, and cryptal abscess. These histological parameters were graded on a standard histological grading system (1 to 3). […] These indicate that the administration of apraglutide has a protective effective against jejunal mucosal damages induced by irradiation and GvHD.

Assay [2] deals with human peripheral blood mononuclear cell (hPBMC) engraftment. Description: Engraftment of human PBMC in total-body-irradiated NOG mice. In kind it is in vivo, immunodeficient (NOG) mice. The protocol:
Engraftment rate was determined through CD45 expression in blood, bone marrow and spleen.

Assay [3] has as its system chemotherapy-induced gastrointestinal (GI) damage. Nature of the assay: Chemotherapy-induced (cytarabine or melphalan) intestinal damage in mice. The assay is classed as in vivo, Balb/c mice. How it is done:
In a first experiment, 4 groups of Balb/c mice: (A) vehicle only; (B) cytarabine on Days 5-9, no apraglutide given; (C) cytarabine on Days 5-9; concomitant apraglutide on Days 5-18; (D) cytarabine on Days 5-9; pre-treatment apraglutide on Days 1, 3, and continued as concomitant treatment on Days 5, 8, 11, 14, and 17. Treatment groups were dosed with 30 mg/kg cytarabine and/or apraglutide 3.3 mg/kg.
In a second experiment, 3 treatment groups of Balb/c mice: (A) vehicle only; (B) melphalan on Day 9, no apraglutide; (C) melphalan on Day 9; pre-treatment apraglutide on Days 1, 3, 5, 7 and continued as concomitant treatment on Days 9, 11, and 13.
In both models, mice that received vehicle without any treatment served as controls. Intestinal tissue histology, body weight, survival, and plasma citrulline, a marker of total mucosal mass and intestinal growth, was assessed in both models.

Assay [4] relates to fecal microbiota (Bacteroidetes, Firmicutes). Nature of the assay: Fecal microbiota composition during cytarabine chemotherapy (16S taxonomical meta-sequencing). The assay is classed as in vivo, Balb/c mice. To be noted: for changes in the composition of bacterial species (Bacteroidetes, Firmicutes): Days 0 to 18.
The test system of assay [5] is blood cell count. Nature of the assay: Cytarabine-induced immunosuppression (blood cell counts). The assay is classed as in vivo, Balb/c mice. The conditions noted are these: 4 weeks after the end of treatment. The protocol: In a second experiment, apraglutide's effect on the ability of cytarabine to induce immunosuppression was assessed. The experiment included three groups of Balb/c mice: (A) vehicle; (B) cytarabine on Days 5-9; (C) cytarabine on Days 5-9, concomitant apraglutide on Days 5-18. RBC, platelets, WBC, NEU and LYMPH were assessed. A cohort was allowed to survive for 4 weeks to assess the effect of apraglutide on immunosuppression recovery (FIG. 12).

The test system of assay [6] is WBC, NEU and LYMPH. Nature of the assay: Melphalan-induced immunosuppression (WBC, NEU, LYMPH). The assay is classed as in vivo, Balb/c mice. How it is done: In a third experiment, the effect of apraglutide on melphalan-induced immunosuppression was assessed (FIG. 13). Three groups of Balb/c mice were included: (A) vehicle; (B) melphalan on Day 9; (C) melphalan on Day 9, apraglutide pre-treatment on Days 1, 3, 5, 7 and continued as co-administration on Days 9, 11, and 13. WBC, NEU and LYMPH were assessed.

In assay [7] the test system is cytarabine-induced toxicity. Description: Apraglutide dose-response study with cytarabine chemotherapy. The assay is classed as in vivo, BALB/cJ female mice. To be noted: for polymorphonuclear (PMN) cell count: cytarabine alone or combined with hGLP-2 or apraglutide. The protocol:
The apraglutide dose-dependent impact on the immunosuppressive effect of cytarabine was evaluated. The effect of cytarabine treatment on polymorphonuclear (PMN) cell count was determined (FIG. 20). […] In a separate study during which animals treated with cytarabine alone or in combination with apraglutide initiated before cytarabine (Days-4 to +12) were allowed to survive for 4 additional weeks.

The test system of assay [8] is acute gastrointestinal GvHD mouse model. Description: Acute GvHD mouse model, second experiment (7.0 Gy irradiation + allogeneic transplant).
Description: In a second experiment BALB/cJ male mice were separated into three groups, Group A, Group B and Group C. Groups A and B consisted of 10 mice and Group C consisted of 5 mice.
Mice in Group A received subcutaneous injections of apraglutide in an amount of 3 mg/kg/mouse (administered in 300 μl of vehicle), every second day from Day −9 to Day +7 (Days: −9, −7, −5, −3-1, +1, +3, +5, +7).
Mice in Group B received subcutaneous injections of 300 μl of vehicle control every second day starting from Day −9 to Day +7 (Days: −9, −7, −5, −3−1, +1, +3, +5, +7).
Mice in Group C received subcutaneous injections of 300 μl of vehicle control every second day starting from Day −9 to Day +7 (Days: −9, −7, −5, −3−1, +1, +3, +5, +7).
On Day −1 of the experiment, all mice in Groups A and B were irradiated with 7.0 Gy using an linac x-ray source. Group C was not irradiated but were injected with the vehicle only.
On Day 0 of the experiment, bone marrow and T cells from C57BL/6J mice were collected, prepared and transplanted into the mice of Group A and Group B. Each mouse in Group A and Group B was intravenously injected with 10 million bone marrows cells extracted from the femurs of the C57BL/6J mice and 2.5 million spleen cells extracted from the C57BL/6J mice.
Morbidity, mortality, body weight, clinical signs (diarrhea, appearance and behavior), length of intestinal segments, and histopathology of the intestine, skin, spleen and liver were monitored in the mice of Group A, Group B and Group C. All mice were sacrificed at Day +14 at the latest.
Assay [9] has as its system acute GVHD-induced intestinal damage. Nature of the assay: TBI-induced intestinal damage with allogeneic transplantation (Example 2, second experiment).
Description: In a second experiment, TBI-induced intestinal damaged BALB/cJ mice received allogeneic transplantation and were treated with apraglutide (3.3 mg/kg) or vehicle on Days −9, −7, −5, −3-1, +1, +3, +5, +7. Intestinal damage indicative of GvHD (histological changes, length, hemorrhage, inflammation), body weight, and survival were assessed.
Assay [10] concerns human leukemia cells. To be noted: vs vehicle.
Description: In a first experiment, cytarabine's anti-tumor effects were assessed in leukemic NOD/SCID mice (FIG. 11a). Apraglutide or vehicle was administered on Days −4 to 4. Cytarabine or vehicle was administered on Days 0-4. Bone marrow and spleen samples were collected on Day 7 and percentage of hCD45+ cells determined.
[11] abbreviates: apraglutide 3 mg/kg s.c., histological grading 1 to 3, vs vehicle.
Setting [12] is: apraglutide 3.3 mg/kg vs vehicle.

`CCCC[C@H](NC(=O)[C@H](CCC(=O)O)NC(=O)[C@H](CC(=O)O)NC(=O)[C@H](CO)NC(=O)[C@H](Cc1ccccc1)NC(=O)[C@H](CO)NC(=O)CNC(=O)[C@H](CC(=O)O)NC(=O)CNC(=O)[C@@H](N)Cc1c[nH]cn1)C(=O)N[C@H](Cc1ccccc1)C(=O)N[C@H](C(=O)N[C@H](C(=O)N[C@@H](CC(C)C)C(=O)N[C@@H](CC(=O)O)C(=O)N[C@@H](CC(C)C)C(=O)N[C@@H](CC(C)C)C(=O)N[C@@H](C)C(=O)N[C@@H](C)C(=O)N[C@@H](CCCNC(=N)N)C(=O)N[C@@H](CC(=O)O)C(=O)N[C@@H](Cc1ccccc1)C(=O)N[C@H](C(=O)N[C@@H](CC(N)=O)C(=O)N[C@@H](Cc1c[nH]c2ccccc12)C(=O)N[C@@H](CC(C)C)C(=O)N[C@H](C(=O)N[C@@H](CCC(N)=O)C(=O)N[C@H](C(=O)N[C@@H](CCCCN)C(=O)N[C@H](C(=O)N[C@H](C(=O)N[C@@H](CC(=O)O)C(N)=O)C(C)O)C(C)CC)C(C)O)C(C)CC)C(C)CC)C(C)CC)C(C)O` (stereo partly drawn) [apraglutide] (H-HGDGSFSDE[Nle][dF][Thr(3ξ)][Ile(3ξ)]LDLLAARDF[Ile(3ξ)]NWL[Ile(3ξ)]Q[Thr(3ξ)]K[Ile(3ξ)][Thr(3ξ)]D-NH2): the colon length entry in [1] (8.5 Gy + C57BL/6J bone marrow/spleen cells, apraglutide 3 mg/kg s.c. every second day Day −9 to +7, vs vehicle group) is given as “increased colon lengths that were nearly the same as the control mice”. In addition, in [1] (setting [11]), the “mean severity score of the regenerative cryptal hyperplasia (jejunum)” value is “slightly increased” and the “overall mean severity score of mucosal degenerative/inflammatory changes in the jejunum” value was “slightly decreased”. The “engraftment rate in blood, spleen and bone marrow (CD45 expression)” value in assay [2] (apraglutide 3.3 mg/kg Days −6 to 18, TBI 1.44 Gy, hPBMC 3×10^7) is reported as “not affected”. The “hCD45+ cells infiltration in the intestinal wall” value in [2] (apraglutide vs vehicle) is recorded as “no difference”. Further, the “degenerative intestinal changes (villi and crypt atrophy) caused by cytarabine or melphalan” value in assay [3] (apraglutide co-administration, 3.3 mg/kg) is given as “reduced”. Also, the chemotherapy-induced weight loss result in assay [3] (apraglutide with cytarabine or melphalan) is listed as “attenuated”. Also, the overall survival entry in [3] (vs vehicle-only or chemotherapy-only groups) is reported as “improved overall survival”. For the same molecule, the “weight of duodenum, ileum and jejunum” value in assay [3] (with apraglutide) is recorded as “increased in weight”. Besides, the “changes in the composition of bacterial species (Bacteroidetes, Firmicutes)” value in [4] was “the effect was reduced”. The “recovery of hematological parameters” value in assay [5] is on record as “did not impact”. In addition, the “impact on cytarabine- or melphalan-induced immunosuppression” value in assay [6] (combination with apraglutide) was “no negative impact”. Further, the “improvement in animal survival vs cytarabine alone” value in [7] (all apraglutide-treated groups) is “statistically significant”. Also, in assay [7] (apraglutide 0.33 mg/kg and 1.1 mg/kg with cytarabine vs cytarabine alone), the plasma citrulline concentrations result was “improvement in citrulline concentrations”. For the same molecule, the “polymorphonuclear (PMN) cell count” value in assay [7] was “not reversed”. In [7] (cytarabine combined with 0.11 mg/kg apraglutide or hGLP-2 (0.60 mg/kg twice daily)), the initial weight loss entry is “did not decrease initial weight loss”. Further, the “mice survived past Day 9” value in assay [8] (7.0 Gy + allogeneic transplant, apraglutide 3 mg/kg s.c.) stood at 40%. Moreover, the median survival in [8] (7.0 Gy + allogeneic transplant, apraglutide 3 mg/kg s.c. Day −9 to +7) is given as 9 days. For the same molecule, in assay [8] (Group A), the “body weight of surviving mice beyond Day 9” value is recorded as “regained body weight”. For the same molecule, the “length of the small intestine” value in assay [8] (Groups A, B and C compared) is listed as “no differences were observed”. Moreover, the “weight loss, Group A vs Group B” value in assay [8] (apraglutide 3 mg/kg s.c. vs vehicle, both TBI/BMT) is reported as “No significant difference”. Further, the “animal survival (Kaplan-Meier)” value in assay [8] (apraglutide initiated before TBI/BMT vs TBI/BMT animals) is “enhanced survival; also recorded: significant difference relative to TBI/BMT animals”. Further, the “mice with intestinal pathological score of 0” value in [8] (score 0 least severe to 4 most severe, Group A, 10 mice) is on record as “four out of out of ten”. Also, the lymphocyte engraftment entry in [9] (apraglutide 3.3 mg/kg Days −9 to +7) is reported as “successfully achieved”. Besides, in [9] (setting [12]), the median survival result is on record as “similar”; the “post-mortem histological examination, mucosal degenerative/inflammatory changes” value was “less mucosal degenerative/inflammatory changes”; the weight loss result was “similar”. Besides, in assay [9] (on Day +9, apraglutide 3.3 mg/kg), the overall survival came out at 40%.
As for `Nc1ccn([C@@H]2O[C@H](CO)[C@@H](O)[C@@H]2O)c(=O)n1` [Cytarabine only, Cytarabine], in assay [4] (Day 0), the “Bacteroidetes, mean (Table 1b)” value was 18.3; the “Firmicutes, mean (Table 1b)” value was 78.7; the “unclassified phylum, mean (Table 1b)” value came to 1.3. In addition, in [4] (Day 18), the “Bacteroidetes, mean (Table 1b)” value is 48.7; the “Firmicutes, mean (Table 1b)” value was 49.6; the “unclassified phylum, mean (Table 1b)” value is 1.2. Moreover, the “changes in the composition of bacterial species (Bacteroidetes, Firmicutes)” value in [4] is “increasing the Bacteroidetes population and decreasing the proportion of Firmicutes bacteria”. Besides, the “polymorphonuclear (PMN) cell count” value in assay [7] is on record as “depleted PMN counts”. For the same molecule, the “reduction in human leukemia cells” value in assay [10] was “significantly greater than vehicle”.
Take `N[C@@H](Cc1ccc(N(CCCl)CCCl)cc1)C(=O)O` [melphalan, Melphalan, reference compound]: in assay [6] (melphalan on Day 9, with or without apraglutide), the “WBC and LYMPH vs vehicle” value is listed as “severe decreases”.
